Assay results from patent US11612604B2, “Methods of treating cancer with PLK4 inhibitors” (LUDWIG INSTITUTE FOR CANCER RESEARCH LTD, priority 2017, dated 2023).

biological target: T1, PLK4 (Homo sapiens, UniProt O00444); experiment: Activity (IC50) of the Table 1 compounds as PLK4 inhibitors; assay type: biochemical; conditions: Table 1, IC50 class
T1 sequence (O00444 1-970): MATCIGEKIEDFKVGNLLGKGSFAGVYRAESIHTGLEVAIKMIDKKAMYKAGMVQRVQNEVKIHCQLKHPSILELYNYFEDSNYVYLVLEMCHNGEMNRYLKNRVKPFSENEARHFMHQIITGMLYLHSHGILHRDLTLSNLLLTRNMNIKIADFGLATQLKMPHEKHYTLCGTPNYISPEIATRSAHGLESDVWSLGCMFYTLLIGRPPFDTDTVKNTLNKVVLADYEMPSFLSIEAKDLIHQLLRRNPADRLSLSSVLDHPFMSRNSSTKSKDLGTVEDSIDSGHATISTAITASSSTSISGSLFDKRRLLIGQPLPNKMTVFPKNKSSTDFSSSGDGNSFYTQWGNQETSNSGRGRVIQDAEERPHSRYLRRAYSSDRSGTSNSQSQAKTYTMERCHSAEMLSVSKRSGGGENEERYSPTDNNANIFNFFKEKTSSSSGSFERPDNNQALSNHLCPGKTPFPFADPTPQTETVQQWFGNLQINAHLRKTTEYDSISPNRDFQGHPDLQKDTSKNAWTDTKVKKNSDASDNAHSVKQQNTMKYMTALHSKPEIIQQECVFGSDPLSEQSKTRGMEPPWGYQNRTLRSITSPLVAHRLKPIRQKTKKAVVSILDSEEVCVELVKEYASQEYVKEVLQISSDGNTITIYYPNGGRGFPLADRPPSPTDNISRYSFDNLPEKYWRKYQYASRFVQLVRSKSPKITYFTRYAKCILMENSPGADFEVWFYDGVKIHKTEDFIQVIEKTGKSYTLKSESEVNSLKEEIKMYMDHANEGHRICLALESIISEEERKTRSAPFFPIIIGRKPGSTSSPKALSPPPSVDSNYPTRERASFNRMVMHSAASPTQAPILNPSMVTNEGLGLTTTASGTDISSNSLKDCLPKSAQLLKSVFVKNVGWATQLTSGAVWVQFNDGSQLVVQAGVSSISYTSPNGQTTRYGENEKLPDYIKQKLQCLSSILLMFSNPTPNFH

IC50, < 100 nM:
COc1c(Nc2cc(C)[nH]n2)nc(Sc2ccc(NC(=O)C3CCCC3)cc2)nc1N(C)C, COCCNc1nc(Sc2ccc(NC(=O)C3CCCC3)cc2)nc(Nc2cc(C)[nH]n2)c1OC, COc1c(Nc2cc(C)[nH]n2)nc(Sc2ccc(NC(=O)C3CCCC3)cc2)nc1N1CCN(C(C)=O)CC1, COCCN1CCN(c2nc(Sc3ccc(NC(=O)C4CCCC4)cc3)nc(Nc3cc(C)[nH]n3)c2OC)CC1, CCOc1c(Nc2cc(C)[nH]n2)nc(Sc2ccc(NC(=O)C3CC3)cc2)nc1N1CCOCC1, COc1c(Nc2cc(C)[nH]n2)nc(Sc2ccc(NC(=O)C3CCCC3)cc2)nc1N1CCN(C)CC1, COc1c(Nc2cc(C)[nH]n2)nc(Sc2ccc(NC(=O)C3CCCC3)cc2)nc1N1CCNCC1, COc1c(Nc2cc(C)[nH]n2)nc(Sc2ccc(NC(=O)C3CCCC3)cc2)nc1N1CCN(CCN(C)C)CC1, CCOc1c(Nc2cc(C)[nH]n2)nc(Sc2ccc(NC(=O)C3CC3)cc2)nc1N1CCNCC1, CCOc1c(Nc2cc(C)[nH]n2)nc(Sc2ccc(NC(=O)C3CC3)cc2)nc1N(CC)CC, CCOc1c(Nc2cc(C)[nH]n2)nc(Sc2ccc(NC(=O)C3CC3)cc2)nc1N(C)CC, CCOc1c(Nc2cc(C)[nH]n2)nc(Sc2ccc(NC(=O)C3CC3)cc2)nc1N(C)C, COc1c(Nc2cc(C)[nH]n2)nc(Sc2ccc(NC(=O)C3CC3)cc2)nc1N1CCN(C2CCN(C)CC2)CC1, COc1c(Nc2cc(C)[nH]n2)nc(Sc2ccc(NC(=O)C3CC3)cc2)nc1N1CCC(C(=O)CN(C)C)CC1, COc1c(Nc2cc(C)[nH]n2)nc(Sc2ccc(NC(=O)C3CC3)cc2)nc1N1CCN(C(=O)CCN(C)C)CC1, COc1c(Nc2cc(C)[nH]n2)nc(Sc2ccc(S(=O)(=O)Cc3ccncc3)cc2)nc1N1CCN(CCN(C)C)CC1, COc1c(Nc2cc(C)[nH]n2)nc(Sc2ccc(S(=O)(=O)Cc3ccccc3)cc2)nc1N1CCC(CCN(C)C)CC1, COc1c(Nc2cc(C)[nH]n2)nc(Sc2ccc(S(=O)(=O)Cc3ccccc3)cc2)nc1N1CCN(C)CC1, CCS(=O)(=O)c1ccc(Sc2nc(Nc3cc(C)[nH]n3)c(OC)c(N3CCN(C)CC3)n2)cc1, COc1c(Nc2cc(C)[nH]n2)nc(Sc2ccc(S(=O)(=O)Cc3cccnc3)cc2)nc1N1CCN(CCN(C)C)CC1, COc1c(Nc2cc(C)[nH]n2)nc(Sc2ccc(S(=O)(=O)Cc3ccc(Cl)cc3)cc2)nc1N1CCN(CCN(C)C)CC1, COc1c(Nc2cc(C)[nH]n2)nc(Sc2ccc(S(=O)(=O)Cc3ccccc3)cc2)nc1N1CCN(CCN2C3CCCC2CCC3)CC1, COc1c(Nc2cc(C)[nH]n2)nc(Sc2ccc(S(=O)(=O)Cc3cccs3)cc2)nc1N1CCN(CCN(C)C)CC1, CCS(=O)(=O)c1ccc(Sc2nc(Nc3cc(C)[nH]n3)c(OC)c(N3CCNCC3)n2)cc1, COc1c(Nc2cc(C)[nH]n2)nc(Sc2ccc(S(=O)(=O)Cc3nccs3)cc2)nc1N1CCN(CCN(C)C)CC1, CCS(=O)(=O)c1ccc(Sc2nc(Nc3cc(C)[nH]n3)c(OC)c(C3CCN(CCN(C)C)CC3)n2)cc1, COc1c(Nc2cc(C)[nH]n2)nc(Sc2ccc(S(=O)(=O)Cc3ccccc3)cc2)nc1C1CCN(CCN(C)C)CC1, CCS(=O)(=O)c1ccc(Sc2nc(Nc3cc(C)[nH]n3)c(OC)c(N3CCC(CCN4C5CCCC4CCC5)CC3)n2)cc1, COc1c(Nc2cc(C)[nH]n2)nc(Sc2ccc(S(=O)(=O)Cc3ncc[nH]3)cc2)nc1N1CCN(CCN(C)C)CC1, CCS(=O)(=O)c1ccc(Sc2nc(C)c(OC)c(Nc3cc(C)[nH]n3)n2)cc1, COc1c(C)nc(Sc2ccc(S(=O)(=O)Cc3ccccc3)cc2)nc1Nc1cc(C)[nH]n1, COc1c(Nc2cc(C)[nH]n2)nc(Sc2ccc(S(=O)(=O)CCN(C)C)cc2)nc1N1CCN(CCN(C)C)CC1, COc1c(Nc2cc(C)[nH]n2)nc(Sc2ccc(S(=O)(=O)c3ccccc3)cc2)nc1N1CCN(CCN(C)C)CC1, COc1c(Nc2cc(C)[nH]n2)nc(Sc2ccc(S(=O)(=O)Cc3ncco3)cc2)nc1N1CCN(CCN(C)C)CC1, CCOc1c(Nc2cc(C)[nH]n2)nc(Sc2ccc(S(=O)(=O)CC)cc2)nc1N1CCN(CCN(C)C)CC1, CCOc1c(Nc2cc(C)[nH]n2)nc(Sc2ccc(S(=O)(=O)Cc3ccccc3)cc2)nc1N1CCN(CCN(C)C)CC1, COc1c(Nc2cc(C)[nH]n2)nc(Sc2ccc(S(=O)(=O)Cc3ccccc3)cc2)nc1N1CCOCC1, COc1c(Nc2cc(C)[nH]n2)nc(Sc2ccc(S(=O)(=O)Cc3ccccc3)cc2)nc1N(C)C, COc1c(Nc2cc(C)[nH]n2)nc(Sc2ccc(S(=O)(=O)Cc3ccccc3)cc2)nc1N1CCCCC1, COc1c(Nc2cc(C)[nH]n2)nc(Sc2ccc(S(=O)(=O)Cc3ccccc3)cc2)nc1N1CCN(CCN2CCN(C)CC2)CC1, COc1c(Nc2cc(C)[nH]n2)nc(Sc2ccc(S(=O)(=O)Cc3ccccc3)cc2)nc1N1CCN(CCN2C3CCCC2CC3)CC1, Cc1cc(Nc2nc(Sc3ccc(S(=O)(=O)Cc4ccccc4)cc3)nc(N3CCN(CCN(C)C)CC3)c2C)n[nH]1, Cc1cc(Nc2cc(N3CCN(CCN(C)C)CC3)nc(Sc3ccc(S(=O)(=O)Cc4ccccc4)cc3)n2)n[nH]1, COc1c(Nc2cc[nH]n2)nc(Sc2ccc(S(=O)(=O)Cc3ccccc3)cc2)nc1N1CCN(CCN(C)C)CC1, CCS(=O)(=O)c1ccc(Sc2nc(Nc3cc(C)[nH]n3)c(OC)c(N3CCCCC3)n2)cc1, CCS(=O)(=O)c1ccc(Sc2nc(Nc3cc(C)[nH]n3)c(OC)c(N3CCOCC3)n2)cc1, COc1c(Nc2cc(C)[nH]n2)nc(Sc2ccc(S(=O)(=O)Cc3cccc([N+](=O)[O-])c3)cc2)nc1N1CCN(CCN(C)C)CC1, COc1c(Nc2cc(C)[nH]n2)nc(Sc2ccc(S(=O)(=O)Cc3ccc([N+](=O)[O-])cc3)cc2)nc1N1CCN(CCN(C)C)CC1, CCN(CC)c1nc(Sc2ccc(S(=O)(=O)Cc3ccccc3)cc2)nc(Nc2cc(C)[nH]n2)c1OC, CCN(CC)c1nc(Sc2ccc(S(=O)(=O)CC)cc2)nc(Nc2cc(C)[nH]n2)c1OC, CCOc1c(Nc2cc(C)[nH]n2)nc(Sc2ccc(S(=O)(=O)Cc3ccccc3)cc2)nc1N1CCNCC1, CCOc1c(Nc2cc(C)[nH]n2)nc(Sc2ccc(S(=O)(=O)CC)cc2)nc1N1CCNCC1, COc1c(Nc2cc(C)[nH]n2)nc(Sc2ccc(S(=O)(=O)Cc3ccc(F)cc3F)cc2)nc1N1CCN(CCN(C)C)CC1, COc1c(Nc2cc(C)[nH]n2)nc(Sc2ccc(S(=O)(=O)Cc3ccccc3F)cc2)nc1N1CCN(CCN(C)C)CC1, COc1c(Nc2cc(C)[nH]n2)nc(Sc2ccc(S(=O)(=O)Cc3ccccc3)cc2)nc1N1CCN(CCN(C)c2ccccc2)CC1, CCCOc1c(Nc2cc(C)[nH]n2)nc(Sc2ccc(S(=O)(=O)Cc3ccccc3)cc2)nc1N1CCN(CCN(C)C)CC1, Cc1cc(Nc2nc(Sc3ccc(S(=O)(=O)Cc4ccccc4)cc3)nc(N3CCN(CCN(C)C)CC3)c2OC(C)C)n[nH]1, COc1c(Nc2cc(C)[nH]n2)nc(Sc2ccc(S(=O)(=O)Cc3cccc(O)c3)cc2)nc1N1CCN(CCN(C)C)CC1, COc1c(Nc2cc(C)[nH]n2)nc(Sc2ccc(S(=O)(=O)Cc3cccc(OCc4ccccc4)c3)cc2)nc1N1CCN(CCN(C)C)CC1, CCOc1c(Nc2cc(C)[nH]n2)nc(Sc2ccc(S(=O)(=O)Cc3ccccc3)cc2)nc1N1CCN(CCN2C3CCCC2CC3)CC1, CCOc1c(Nc2cc(C)[nH]n2)nc(Sc2ccc(S(=O)(=O)CC)cc2)nc1N1CCC(CCN(C)C)CC1, COc1c(Nc2cc(C)[nH]n2)nc(Sc2ccc(S(=O)(=O)Cc3cc(F)ccc3F)cc2)nc1N1CCN(CCN(C)C)CC1, COc1c(Nc2cc(C)[nH]n2)nc(Sc2ccc(S(=O)(=O)Cc3cccc(-c4ccccc4)c3)cc2)nc1N1CCN(CCN(C)C)CC1, COc1c(Nc2cc(C)[nH]n2)nc(Sc2ccc(S(=O)(=O)Cc3cccc(C(C)=O)c3)cc2)nc1N1CCN(CCN(C)C)CC1, COc1c(Nc2cc(C)[nH]n2)nc(Sc2ccc(S(=O)(=O)Cc3cccc([N+](=O)[O-])c3)cc2)nc1N1CCOCC1, COc1c(Nc2cc(C)[nH]n2)nc(Sc2ccc(S(=O)(=O)Cc3ccccc3)cc2)nc1N1CCN(Cc2ccccc2)CC1, COc1c(Nc2cc(C)[nH]n2)nc(Sc2ccc(S(=O)(=O)Cc3ccccc3)cc2F)nc1N1CCN(CCN(C)C)CC1
